Results from US9452990B2, “Complement pathway modulators and uses thereof” (NOVARTIS AG, priority 2012, dated 2016).
Structures can show the parent of a compound that is named as a salt.

Target: human complement factor B (CVF-Bb complex) (Homo sapiens (Human), UniProt P00751)
Assay: Human Complement Factor B ELISA Assay
Assay type: biochemical
Details: CVF-Bb complex 3 nM, 1 hour preincubation with compound at room temperature, human C3 substrate 1 μM, C3a quantified by ELISA; read-out: Factor B IC50
Summary of the method: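 Preformed CVF-Bb complex (3 nM; cobra venom factor with recombinant human factors B and D) preincubated with compound 1 h, RT, in PBS pH 7.4, 10 mM MgCl2, 0.05% CHAPS. Plasma C3 added at 1 μM final for 1 h, then stopped; C3a product measured by ELISA, IC50 from % inhibition.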

| SMILES | IC50 |
| --- | --- |
| COc1cc2c(N)nc(N3CCN(C(=O)C[C@@H](N)c4ccc(F)cc4)CC3)nc2c(C#N)c1OC [Example 76, 4-Amino-2-{4-[(R)-3-amino-3-(4-fluoro-phenyl)-propionyl]-piperazin-1-yl}-6,7-dimethoxy-quinazoline-8-carbonitrile] | 100 nM |
| CN[C@H](CC(=O)N1CCN(c2nc(N)c3cc(OC)c(OC)c(F)c3n2)CC1)c1ccc(C#N)cc1 [Example 77, (R)-4-(3-(4-(4-amino-8-fluoro-6,7-dimethoxyquinazolin-2-yl)piperazin-1-yl)-1-(methylamino)-3-oxopropyl)benzonitrile] | 4 nM |
| CN[C@H](CC(=O)N1CCN(c2nc(N)c3cc(OC)c(OC)c(F)c3n2)CC1)C1CCCCC1 [Example 78, (R)-1-(4-(4-amino-8-fluoro-6,7-dimethoxyquinazolin-2-yl)piperazin-1-yl)-3-cyclohexyl-3-(methylamino)propan-1-one] | 80 nM |
| [2H]C([2H])([2H])N[C@H](CC(=O)N1CCN(c2nc(N)c3cc(OC)c(OC)c(F)c3n2)CC1)c1ccccc1 [Example 79, (R)-1-[4-(4-Amino-8-fluoro-6,7-dimethoxy-quinazolin-2-yl)-piperazin-1-yl]-3-d^3-methylamino-3-phenyl-propan-1-one hydrochloride] | 50 nM |
| [2H]C([2H])([2H])N[C@H](CC(=O)N1CCN(c2nc(N)c3cc(OC)c(OC)c(F)c3n2)CC1)c1ccc(F)cc1 [Example 80, (R)-1-(4-(4-Amino-8-fluoro-6,7-dimethoxyquinazolin-2-yl)piperazin-1-yl)-3-(4-fluorophenyl)-3-(d^3-methylamino)propan-1-one hydrochloride] | 6 nM |
| COc1cc2c(N)nc(N3CCN(C(=O)C[C@@H](N)c4ccccc4)CC3)nc2c(Br)c1OC [Example 81, (R)-3-amino-1-(4-(4-Amino-8-bromo-6,7-dimethoxyquinazolin-2-yl)piperazin-1-yl)-3-phenylpropan-1-one] | 510 nM |
| COc1cc2c(N)nc(N3CCN(C(=O)C[C@@H](N)c4ccc(F)cc4)CC3)nc2c(Cl)c1OC [Example 82, (R)-3-Amino-1-(4-(4-amino-8-chloro-6,7-dimethoxyquinazolin-2-yl)piperazin-1-yl)-3-(4-fluorophenyl)propan-1-one] | 1020 nM |
| COc1cc2nc(N3CCN(C(=O)C[C@@H](N)c4ccc(F)cc4)CC3)nc(N)c2c(F)c1OC [Example 83, (R)-3-Amino-1-[4-(4-amino-5-fluoro-6,7-dimethoxy-quinazolin-2-yl)-piperazin-1-yl]-3-(4-fluoro-phenyl)-propan-1-one] | 30 nM |
| CCN[C@H](CC(=O)N1CCN(c2nc(N)c3cc(OC)c(OC)c(F)c3n2)CC1)c1ccc(F)cc1 [Example 84, (R)-1-[4-(4-Amino-8-fluoro-6,7-dimethoxy-quinazolin-2-yl)-piperazin-1-yl]-3-ethylamino-3-(4-fluoro-phenyl)-propan-1-one] | 6 nM |
| COc1cc2c(N)nc(N3CCN(C(=O)C[C@H](c4ccccc4)N(C)C)CC3)nc2c(F)c1OC [Example 85, (R)-1-[4-(4-Amino-8-fluoro-6,7-dimethoxy-quinazolin-2-yl)-piperazin-1-yl]-3-dimethylamino-3-phenyl-propan-1-one] | 80 nM |
| COc1cc2c(N)nc(N3CCN(C(=O)C[C@H](c4ccc(F)cc4)N(C)C)CC3)nc2c(F)c1OC [Example 86] | 40 nM |
| COc1cc2c(N)nc(N3CCN(C(=O)C[C@@H](NC(CF)CF)c4ccc(F)cc4)CC3)nc2c(F)c1OC [Example 87, (R)-1-(4-(4-amino-8-fluoro-6,7-dimethoxyquinazolin-2-yl)piperazin-1-yl)-3-(1,3-difluoropropan-2-ylamino)-3-(4-fluorophenyl)propan-1-one] | 40 nM |
| COc1cc2c(N)nc(N3CCN(C(=O)C[C@@H](NCC(F)(F)F)c4ccc(F)cc4)CC3)nc2c(F)c1OC [Example 88, (R)-1-[4-(4-Amino-8-fluoro-6,7-dimethoxy-quinazolin-2-yl)-piperazin-1-yl]-3-(4-fluoro-phenyl)-3-(2,2,2-trifluoro-ethylamino)-propan-1-one] | 30 nM |
| COc1cc2c(N)nc(N3CCN(C(=O)C[C@@H](NC(C)C)c4ccc(F)cc4)CC3)nc2c(F)c1OC [Example 89, (R)-1-[4-(4-Amino-8-fluoro-6,7-dimethoxy-quinazolin-2-yl)-piperazin-1-yl]-3-(4-fluoro-phenyl)-3-isopropylamino-propan-1-one] | 30 nM |
| CCN[C@H](CC(=O)N1CCN(c2nc(N)c3cc(OC)c(OC)c(F)c3n2)CC1)c1ccc(C#N)cc1 [Example 90, (R)-4-(3-(4-(4-amino-8-fluoro-6,7-dimethoxyquinazolin-2-yl)piperazin-1-yl)-1-(ethylamino)-3-oxopropyl)benzonitrile] | 1 nM |
| COc1cc2c(N)nc(N3CCN(C(=O)C[C@@H](NC(C)C)c4ccc(F)c(C#N)c4)CC3)nc2c(F)c1OC [Example 91, (R)-5-(3-(4-(4-amino-8-fluoro-6,7-dimethoxyquinazolin-2-yl)piperazin-1-yl)-1-(isopropylamino)-3-oxopropyl)-2-fluorobenzonitrile] | 12 nM |
| CCCN[C@H](CC(=O)N1CCN(c2nc(N)c3cc(OC)c(OC)c(F)c3n2)CC1)c1ccc(Cl)s1 [Example 92, (R)-1-(4-(4-amino-8-fluoro-6,7-dimethoxyquinazolin-2-yl)piperazin-1-yl)-3-(5-chlorothiophen-2-yl)-3-(propylamino)propan-1-one] | 8 nM |
| COc1cc2c(N)nc(N3CCN(C(=O)C[C@@H](NCC4CC4)c4ccsc4)CC3)nc2c(F)c1OC [Example 93, (R)-1-(4-(4-amino-8-fluoro-6,7-dimethoxyquinazolin-2-yl)piperazin-1-yl)-3-(cyclopropylmethylamino)-3-(thiophen-3-yl)propan-1-one] | 4 nM |
| COCCCN[C@H](CC(=O)N1CCN(c2nc(N)c3cc(OC)c(OC)c(F)c3n2)CC1)c1ccc(F)cc1 [Example 94, (R)-1-(4-(4-amino-8-fluoro-6,7-dimethoxyquinazolin-2-yl)piperazin-1-yl)-3-(4-fluorophenyl)-3-(3-methoxypropylamino)propan-1-one] | 6 nM |
| COc1cc2c(N)nc(N3CCN(C(=O)C[C@@H](NC(C)C)c4ccc(C#N)cc4)CC3)nc2c(F)c1OC [Example 95, (R)-4-(3-(4-(4-amino-8-fluoro-6,7-dimethoxyquinazolin-2-yl)piperazin-1-yl)-1-(isopropylamino)-3-oxopropyl)benzonitrile] | 3 nM |
| COc1cc2c(N)nc(N3CCN(C(=O)C[C@H](c4ccc(F)cc4)N4CCC4)CC3)nc2c(F)c1OC [Example 96, (R)-1-(4-(4-amino-8-fluoro-6,7-dimethoxyquinazolin-2-yl)piperazin-1-yl)-3-(azetidin-1-yl)-3-(4-fluorophenyl)propan-1-one] | 10 nM |
| COc1cc2c(N)nc(N3[C@H](C)CN(C(=O)C[C@@H](NC(C)C)c4ccc(C#N)cc4)C[C@@H]3C)nc2c(F)c1OC [Example 97, 4-((R)-3-((3R,5S)-4-(4-amino-8-fluoro-6,7-dimethoxyquinazolin-2-yl)-3,5-dimethylpiperazin-1-yl)-1-(isopropylamino)-3-oxopropyl)benzonitrile] | 11 nM |
| COc1cc2c(N)nc(N3CCN(C(=O)C[C@@H](NCCF)c4ccc(F)cc4)CC3)nc2c(F)c1OC [Example 98] | 6 nM |
